The text below walks through data of patent publication US6340680B1, “Oxazinoquinolones useful for the treatment of viral infections” (Pharmacia and Upjohn Company, priority 1999, dated 2002).

Holding throughout (format): biochemical
One assay addresses T1, HCMV polymerase (Human cytomegalovirus, UniProt P08546).
T1 construct: made in house; host or cells: recombinant baculovirus-infected SF-9 cells
The assay can be described thus: HCMV polymerase assay (scintillation proximity assay, modified version). Conditions: modified SPA assay, compounds diluted in 100% DMSO, 4.5 mM DTT. The method, then: (§1) The HCMV polymerase assay is performed using a scintillation proximity assay (SPA) as described in several references, such as N. D. Cook, et al., Pharmaceutical Manufacturing International, pages 49-53 (1992); K. Takeuchi, Laboratory Practice, September issue (1992); U.S. Pat. No. 4,568,649 (1986); which are incorporated by reference herein. Reactions are performed in 96-well plates. The assay is conducted in 100 μl volume with 5.4 mM HEPES (pH 7.5), 11.7 mM KCl, 4.5 mM MgCl2, 0.36 mg/ml BSA, and 90 nM ^3H-dTTP. Assays are run with and without CHAPS, (3-[(3-Cholamidopropyl)-dimethylammonio]-1-propane-sulfonate) at a final concentration of 2 mM. HCMV polymerase is diluted in enzyme dilution buffer containing 50% glycerol, 250 mM NaCl, 10 mM HEPES (pH 7.5), 100 μg/ml BSA, and 0.01% sodium azide. The HCMV polymerase, which is expressed in recombinant baculovirus-infected SF-9 cells and purified according to literature procedures, is added at 10% (or 10 μl) of the final reaction volume, i.e., 100 μl. Compounds are diluted in 50% DMSO and 10 μl are added to each well. Control wells contain an equivalent concentration of DMSO. Unless noted otherwise, reactions are initiated via the addition of 6 nM biotinylated poly(dA)-oligo(dT) template/primer to reaction mixtures containing the enzyme, substrate, and compounds of interest. Plates are incubated in a 25 C or 37 C H2O bath and terminated via the addition of 40 μl/reaction of 0.5 M EDTA (pH 8) per well. Reactions are terminated within the time-frame during which substrate incorporation is linear and varied depending upon the enzyme and conditions used, i.e., 30 min. for HCMV polymerase. Ten μl of streptavidin-SPA beads (20 mg/ml in PBS/10% glycerol) are added following termination of the reaction. Plates are incubated 10 min. at 37 C, then equilibrated to room temperature, and counted on a Packard Topcount. Linear regressions are performed and IC50's are calculated using computer software.
A modified version of the above HCMV polymerase assay is performed as described above, but with the following changes: Compounds are diluted in 100% DMSO until final dilution into assay buffer. In the previous assay, compounds are diluted in 50% DMSO. 4.5 mM dithiotherotol (DTT) is added to the polymerase buffer. […] Other viral polymerase assays are performed using procedures similar to those described above.

The next assay has as its target VZV polymerase (Varicella-zoster virus, UniProt P09252). In words: VZV polymerase assay (similar procedure). Here is the method: as §1, with “Unless noted otherwise, reactions are initiated via the addition of 6 nM biotinylated poly(dA)-oligo(dT) template/primer to reaction mixtures containing the enzyme, substrate, and compounds of interest. Plates are incubated in a 25 C or 37 C H2O bath and terminated via the addition of 40 μl/reaction of 0.5 M EDTA (pH 8) per well. Reactions are terminated within the time-frame during which substrate incorporation is linear and varied depending upon the enzyme and conditions used, i.e., 30 min. for HCMV polymerase. Ten μl of streptavidin-SPA beads (20 mg/ml in PBS/10% glycerol) are added following termination of the reaction.” left out, “software. […]” for “software.”

Another assay has as its target HSV polymerase (Human herpesvirus 1, UniProt P04293). In words: HSV polymerase assay (similar procedure). The method, then:
as §1, with “Unless noted otherwise, reactions are initiated via the addition of 6 nM biotinylated poly(dA)-oligo(dT) template/primer to reaction mixtures containing the enzyme, substrate, and compounds of interest. Plates are incubated in a 25 C or 37 C H2O bath and terminated via the addition of 40 μl/reaction of 0.5 M EDTA (pH 8) per well. Reactions are terminated within the time-frame during which substrate incorporation is linear and varied depending upon the enzyme and conditions used, i.e., 30 min. for HCMV polymerase. Ten μl of streptavidin-SPA beads (20 mg/ml in PBS/10% glycerol) are added following termination of the reaction.” left out, “software. […]” for “software.”

T1 sequence (P08546 whole entry): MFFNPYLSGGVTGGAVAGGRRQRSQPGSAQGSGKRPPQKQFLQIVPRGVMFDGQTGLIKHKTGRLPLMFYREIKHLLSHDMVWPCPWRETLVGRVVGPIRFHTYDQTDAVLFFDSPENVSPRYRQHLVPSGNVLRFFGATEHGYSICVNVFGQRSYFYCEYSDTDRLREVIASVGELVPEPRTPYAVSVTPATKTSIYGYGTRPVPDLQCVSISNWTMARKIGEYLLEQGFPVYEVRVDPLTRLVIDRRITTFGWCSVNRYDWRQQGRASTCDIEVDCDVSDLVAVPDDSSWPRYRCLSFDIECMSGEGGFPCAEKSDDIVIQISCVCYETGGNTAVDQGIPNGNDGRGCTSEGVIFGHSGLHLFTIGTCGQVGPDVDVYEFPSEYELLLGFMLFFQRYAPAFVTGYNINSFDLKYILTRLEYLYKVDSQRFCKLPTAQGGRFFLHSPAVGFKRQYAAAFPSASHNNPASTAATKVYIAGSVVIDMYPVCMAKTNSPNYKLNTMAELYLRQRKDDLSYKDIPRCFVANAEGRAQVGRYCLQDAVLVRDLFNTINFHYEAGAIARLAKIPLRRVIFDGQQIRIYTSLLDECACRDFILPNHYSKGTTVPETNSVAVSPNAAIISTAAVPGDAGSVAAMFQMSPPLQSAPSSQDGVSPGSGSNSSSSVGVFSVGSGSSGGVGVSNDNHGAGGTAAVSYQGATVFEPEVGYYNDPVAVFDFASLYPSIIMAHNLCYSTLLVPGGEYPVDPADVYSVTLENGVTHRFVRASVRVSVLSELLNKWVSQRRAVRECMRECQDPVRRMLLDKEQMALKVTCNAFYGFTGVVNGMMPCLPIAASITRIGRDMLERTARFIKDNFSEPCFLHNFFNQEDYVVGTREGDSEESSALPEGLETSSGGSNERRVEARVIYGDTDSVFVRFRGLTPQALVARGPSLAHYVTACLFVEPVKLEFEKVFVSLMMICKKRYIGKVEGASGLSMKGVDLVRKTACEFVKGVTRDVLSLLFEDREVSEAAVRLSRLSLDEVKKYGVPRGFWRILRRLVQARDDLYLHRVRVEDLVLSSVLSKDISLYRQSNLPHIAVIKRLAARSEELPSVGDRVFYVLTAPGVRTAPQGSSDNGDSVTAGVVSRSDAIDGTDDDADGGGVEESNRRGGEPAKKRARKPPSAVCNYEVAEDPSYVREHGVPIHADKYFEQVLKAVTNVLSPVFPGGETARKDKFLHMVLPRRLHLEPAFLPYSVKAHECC
Chain of HSV polymerase (P04293 whole entry): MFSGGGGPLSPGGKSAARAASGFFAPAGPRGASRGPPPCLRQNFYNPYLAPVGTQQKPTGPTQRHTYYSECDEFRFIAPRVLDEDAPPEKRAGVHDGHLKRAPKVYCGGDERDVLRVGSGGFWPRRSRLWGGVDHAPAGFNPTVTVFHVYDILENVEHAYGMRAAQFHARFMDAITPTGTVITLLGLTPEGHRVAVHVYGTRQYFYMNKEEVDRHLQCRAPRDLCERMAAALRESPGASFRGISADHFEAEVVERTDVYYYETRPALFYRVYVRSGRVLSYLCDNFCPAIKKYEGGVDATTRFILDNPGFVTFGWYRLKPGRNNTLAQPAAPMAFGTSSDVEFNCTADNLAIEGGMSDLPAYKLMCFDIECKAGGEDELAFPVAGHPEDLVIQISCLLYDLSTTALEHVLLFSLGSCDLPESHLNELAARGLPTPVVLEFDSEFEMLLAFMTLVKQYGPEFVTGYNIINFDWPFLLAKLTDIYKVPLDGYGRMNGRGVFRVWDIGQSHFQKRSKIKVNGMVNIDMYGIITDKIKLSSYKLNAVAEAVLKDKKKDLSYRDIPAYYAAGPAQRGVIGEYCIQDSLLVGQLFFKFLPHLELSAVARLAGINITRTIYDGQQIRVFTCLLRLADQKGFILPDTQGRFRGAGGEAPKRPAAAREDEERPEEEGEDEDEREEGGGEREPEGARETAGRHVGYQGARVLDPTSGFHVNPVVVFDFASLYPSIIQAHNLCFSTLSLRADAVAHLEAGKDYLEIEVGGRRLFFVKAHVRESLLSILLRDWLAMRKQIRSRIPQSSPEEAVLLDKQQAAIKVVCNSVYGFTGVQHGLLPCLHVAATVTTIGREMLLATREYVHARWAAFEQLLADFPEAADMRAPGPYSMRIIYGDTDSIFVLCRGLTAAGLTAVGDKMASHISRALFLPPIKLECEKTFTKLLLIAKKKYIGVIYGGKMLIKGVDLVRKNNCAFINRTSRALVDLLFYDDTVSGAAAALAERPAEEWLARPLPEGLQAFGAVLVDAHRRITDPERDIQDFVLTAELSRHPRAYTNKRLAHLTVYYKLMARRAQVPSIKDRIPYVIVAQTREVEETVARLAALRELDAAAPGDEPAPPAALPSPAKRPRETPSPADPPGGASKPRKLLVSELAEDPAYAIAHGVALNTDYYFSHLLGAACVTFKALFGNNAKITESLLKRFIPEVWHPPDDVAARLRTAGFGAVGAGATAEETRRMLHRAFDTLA
Chain of VZV polymerase (P09252 whole entry): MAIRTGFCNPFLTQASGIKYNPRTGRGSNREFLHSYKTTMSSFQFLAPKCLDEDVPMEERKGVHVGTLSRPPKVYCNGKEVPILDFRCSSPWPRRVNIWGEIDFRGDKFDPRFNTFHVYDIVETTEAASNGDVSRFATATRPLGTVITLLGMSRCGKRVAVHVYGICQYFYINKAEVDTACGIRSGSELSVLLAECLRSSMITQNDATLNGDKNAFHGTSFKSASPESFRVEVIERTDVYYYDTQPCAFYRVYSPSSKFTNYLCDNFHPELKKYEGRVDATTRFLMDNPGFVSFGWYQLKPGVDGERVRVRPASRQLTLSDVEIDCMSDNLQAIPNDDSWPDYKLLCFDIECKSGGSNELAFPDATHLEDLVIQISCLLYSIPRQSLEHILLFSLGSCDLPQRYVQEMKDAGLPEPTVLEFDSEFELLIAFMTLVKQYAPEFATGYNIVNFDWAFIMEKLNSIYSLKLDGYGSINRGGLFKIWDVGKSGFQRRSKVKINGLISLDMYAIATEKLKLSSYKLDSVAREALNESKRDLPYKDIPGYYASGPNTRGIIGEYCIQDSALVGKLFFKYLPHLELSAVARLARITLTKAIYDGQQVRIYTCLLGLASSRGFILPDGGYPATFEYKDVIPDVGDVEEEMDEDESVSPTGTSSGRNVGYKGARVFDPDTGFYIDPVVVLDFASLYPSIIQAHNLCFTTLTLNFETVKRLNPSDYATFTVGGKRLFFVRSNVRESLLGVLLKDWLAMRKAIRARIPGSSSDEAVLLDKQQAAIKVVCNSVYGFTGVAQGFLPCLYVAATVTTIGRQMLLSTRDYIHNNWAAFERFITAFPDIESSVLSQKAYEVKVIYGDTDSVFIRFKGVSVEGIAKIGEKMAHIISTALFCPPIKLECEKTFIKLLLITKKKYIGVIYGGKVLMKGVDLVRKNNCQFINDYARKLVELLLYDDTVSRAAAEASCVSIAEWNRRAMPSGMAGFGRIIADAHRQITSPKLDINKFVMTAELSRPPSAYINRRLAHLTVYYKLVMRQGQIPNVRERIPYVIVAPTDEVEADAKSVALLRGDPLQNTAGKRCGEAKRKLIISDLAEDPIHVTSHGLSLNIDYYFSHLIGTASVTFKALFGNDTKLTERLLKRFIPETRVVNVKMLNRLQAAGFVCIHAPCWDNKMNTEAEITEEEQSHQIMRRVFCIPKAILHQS

Compound `O=C(NCc1ccc(Cl)cc1)c1cn2c3c(cc(CN4CCOCC4)cc3c1=O)OCC2` [Example 1, N-(4-Chlorobenzyl)-9-(4-morpholinylmethyl)-7-oxo-2,3-dihydro-7H-[1,4]oxazino[2,3,4-ij]quinoline-6-carboxamide] came in with a 50% inhibitory concentration (IC50) on HCMV polymerase of 0.48 µM. In other words, the sub-micromolar range.

On HCMV polymerase, `O=C(NCc1ccc(Cl)cc1)c1cn2c3c(cc(C#CCO)cc3c1=O)OCC2` [Example 2, N-(4-Chlorobenzyl)-9-(3-hydroxy-1-propynyl)-7-oxo-2,3-dihydro-7H-[1,4]oxazino[2,3,4-ij]quinoline-6-carboxamide] gave an IC50 of 1.2 µM. This IC50 lies about 2.5-fold higher than the previous one. On to `O=C(NCc1ccc(Cl)cc1)c1cn2c3c(cc(CCCO)cc3c1=O)OCC2` [Example 3A, N-(4-Chlorobenzyl)-9-(3-hydroxypropyl)-7-oxo-2,3-dihydro-7H-[1,4]oxazino[2,3,4-ij]quinoline-6-carboxamide], for which the IC50 on VZV polymerase was 0.21 µM; against HCMV polymerase, less than 0.31 µM; against HSV polymerase it was 0.44 µM. Compound `CCCc1cc2c3c(c1)c(=O)c(C(=O)NCc1ccc(Cl)cc1)cn3CCO2` [Example 3B, N-(4-Chlorobenzyl)-7-oxo-9-propyl-2,3-dihydro-7H-[1,4]oxazino[2,3,4-ij]quinoline-6-carboxamide] yielded a 50% inhibitory concentration (IC50) at HCMV polymerase of 1.8 µM.
